Laboratory results as given in patent US20060069132A1, “Azolecarboxamide herbicides” (priority 2004, published 2006).

Experiments:
[1] = system: rice; assay: Test B flooded paddy test; assay type: in vivo, Oryza sativa; details: 1000 g ai/ha, scale 0 to 100 (0 no effect, 100 complete control)
How it was run: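 Postemergence plants were sprayed with formulated test chemicals at 2 to 18 cm height (1- to 4-leaf stage); paddy species were grown to the 2-leaf stage. After 13 to 15 days in a greenhouse, injury was rated visually against untreated controls on a 0–100 scale (0 = no effect, 100 = complete control).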

[2] = system: blackgrass; assay: Test B postemergence herbicide test; assay type: in vivo, Alopecurus myosuroides
How it was run: (§1)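 Visual ratings, 0 (no effect) to 100 (complete control), made versus controls after 13–15 d greenhouse. Paddy plants treated at 2-leaf stage; postemergence plants at 1- to 4-leaf stage, 2–18 cm tall.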

[3] = system: ducksalad; assay: Test B flooded paddy test; assay type: in vivo, Heteranthera limosa; details: 1000 g ai/ha, scale 0 to 100 (0 no effect, 100 complete control)
How it was run: as §1

[4] = system: barnyardgrass; assay: Test B pre-/postemergence herbicide test; assay type: in vivo, Echinochloa crus-galli; details: for Plant response rating (0 to 100 scale), Barnyardgrass: 0 is no effect, preemergence
How it was run: (§2)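 Visual rating, 0 (no effect) to 100 (complete control), versus untreated controls after 13–15 d in greenhouse. Pre- and postemergence applications (postemergence plants 2–18 cm, 1–4 leaves); flooded paddy arm at 2-leaf stage. Compounds in non-phytotoxic solvent plus surfactant.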

[5] = system: pigweed; assay: Test B pre-/postemergence herbicide test; assay type: in vivo, Amaranthus retroflexus; details: for Plant response rating (0 to 100 scale), Pigweed: 0 is no effect, 100 is complete control, preemergence; for Pigweed plant response rating: scale 0 (no effect) to 100 (complete control)
How it was run: (§3)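 Response was scored visually 13 to 15 days after treatment against untreated greenhouse controls, 0 meaning no effect and 100 complete control. Formulations (solvent mixture plus surfactant) went onto soil after planting, onto foliage of 1- to 4-leaf plants, and onto 2-leaf plants in a flooded paddy set including rice and barnyardgrass.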

[6] = system: wild oat; assay: Test B postemergence herbicide test; assay type: in vivo, Avena fatua; details: scale 0 (no effect) to 100 (complete control)
How it was run: as §1

[7] = system: velvetleaf; assay: Test B pre-/postemergence herbicide test; assay type: in vivo, Abutilon theophrasti; details: for Plant response rating (0 to 100 scale), Velvetleaf: 0 is no effect, 100 is complete control, preemergence; for Velvetleaf plant response rating: scale 0 (no effect) to 100 (complete control)
How it was run: as §3

[8] = system: giant foxtail; assay: Test B pre-/postemergence herbicide test; assay type: in vivo, Setaria faberi; details: for Plant response rating (0 to 100 scale), Foxtail, Giant: 0 is no effect, preemergence
How it was run: as §3

[9] = system: barnyardgrass; assay: Test B flooded paddy test; assay type: in vivo, Echinochloa crus-galli; details: 1000 g ai/ha, scale 0 to 100 (0 no effect, 100 complete control)
How it was run: as §1

[10] = system: wheat; assay: Test B postemergence herbicide test; assay type: in vivo, Triticum aestivum; parameters: key to Wheat plant response rating: 0 = no effect, 100 = complete control
How it was run: as §1

[11] = system: cocklebur; assay: Test B pre-/postemergence herbicide test; assay type: in vivo, Xanthium strumarium; details: for Plant response rating (0 to 100 scale), Cocklebur: 0 is no effect, preemergence
How it was run: as §2

[12] = system: Surinam grass; assay: Test B pre-/postemergence herbicide test; assay type: in vivo, Urochloa decumbens; details: for Plant response rating (0 to 100 scale), Surinam Grass: 0 is no effect, 100 is complete control, preemergence; for Surinam Grass plant response rating: scale 0 (no effect) to 100 (complete control)
How it was run: as §3

[13] = system: morningglory; assay: Test B pre-/postemergence herbicide test; assay type: in vivo, Ipomoea coccinea; details: for Plant response rating (0 to 100 scale), Morningglory: 0 is no effect, 100 is complete control, preemergence; for Morningglory plant response rating: scale 0 (no effect) to 100 (complete control)
How it was run: as §2

[14] = system: small flower umbrella sedge; assay: Test B flooded paddy test; assay type: in vivo, Cyperus difformis; details: 1000 g ai/ha, scale 0 to 100 (0 no effect, 100 complete control)
How it was run: as §1

[15] = system: corn; assay: Test B pre-/postemergence herbicide test; assay type: in vivo, Zea mays; details: for Plant response rating (0 to 100 scale), Corn: 0 is no effect, preemergence
How it was run: as §3

[16] = system: large crabgrass; assay: Test B pre-/postemergence herbicide test; assay type: in vivo, Digitaria sanguinalis; details: for Plant response rating (0 to 100 scale), Crabgrass, Large: 0 is no effect, preemergence
How it was run: as §3

[17] = system: lambsquarters; assay: Test B pre-/postemergence herbicide test; assay type: in vivo, Chenopodium album; details: for Lambsquarters plant response rating: scale 0 (no effect) to 100 (complete control)
How it was run: as §3

[18] = 125 g ai/ha, visual rating, scale 0 (no effect) to 100 (complete control), postemergence
[19] = postemergence, 500 g ai/ha, scale 0 to 100, 0 is no effect, 100 is complete control
[20] = 125 g ai/ha, 100 is complete control
[21] = 125 g ai/ha, visual rating, postemergence
[22] = 500 g ai/ha, scale 0 to 100, 0 no effect, 100 complete control, preemergence
[23] = Postemergence, 500 g ai/ha, scale 0 (no effect) to 100 (complete control)

SMILES: C#CCNC(=O)c1ccc(F)c(NC(=O)c2nn(C(C)(C)C)nc2CC)c1 [Compound 389]
- Rice plant response rating [1]: 20
- Blackgrass plant response rating [2, 18]: 0
- Blackgrass plant response rating [2, 19]: 10
- Ducksalad plant response rating [3]: 0
- Plant response rating (0 to 100 scale), Barnyardgrass [4, 20]: 0
- Barnyardgrass plant response rating [4, 18]: 0
- Barnyardgrass plant response rating [4, 19]: 0
- Plant response rating (0 to 100 scale), Pigweed ([5]; 125 g ai/ha): 0
- Pigweed plant response rating [5, 21]: 20
- Pigweed plant response rating ([5]; Postemergence, 500 g ai/ha): 40
- Oat, Wild plant response rating [6, 21]: 0
- Oat, Wild plant response rating ([6]; Postemergence, 500 g ai/ha): 0
- Plant response rating (0 to 100 scale), Velvetleaf ([7]; 125 g ai/ha): 0
- Velvetleaf plant response rating [7, 21]: 0
- Velvetleaf plant response rating ([7]; Postemergence, 500 g ai/ha): 20
- Plant response rating (0 to 100 scale), Foxtail, Giant [8, 20]: 0
- Foxtail, Giant plant response rating [8, 18]: 0
- Foxtail, Giant plant response rating [8, 19]: 10
- Barnyardgrass plant response rating [9]: 0
- Wheat plant response rating [10, 18]: 0
- Wheat plant response rating [10, 22]: 0
- Wheat plant response rating [10, 23]: 0
- Plant response rating (0 to 100 scale), Cocklebur [11, 20]: 0
- Cocklebur plant response rating [11, 18]: 0
- Cocklebur plant response rating [11, 19]: 0
- Plant response rating (0 to 100 scale), Surinam Grass ([12]; 125 g ai/ha): 0
- Surinam Grass plant response rating [12, 21]: 0
- Surinam Grass plant response rating ([12]; Postemergence, 500 g ai/ha): 10
- Plant response rating (0 to 100 scale), Morningglory ([13]; 125 g ai/ha): 0
- Morningglory plant response rating [13, 21]: 0
- Morningglory plant response rating ([13]; Postemergence, 500 g ai/ha): 0
- Sedge, Umbrella plant response rating [14]: 30
- Plant response rating (0 to 100 scale), Corn [15, 20]: 0
- Corn plant response rating [15, 18]: 0
- Corn plant response rating [15, 19]: 0
- Plant response rating (0 to 100 scale), Crabgrass, Large [16, 20]: 0
- Crabgrass, Large plant response rating [16, 18]: 0
- Crabgrass, Large plant response rating [16, 19]: 10
- Plant response rating (0 to 100 scale), Lambsquarters ([17]; 125 g ai/ha, 0 is no effect, 100 is complete control, preemergence): 0
- Lambsquarters plant response rating [17, 21]: 10
- Lambsquarters plant response rating ([17]; Postemergence, 500 g ai/ha): 30

SMILES: CCOC(=O)c1cccc(NC(=O)c2nn(C(C)C)nc2C)c1 [Compound 397]
- Rice plant response rating [1]: 10
- Blackgrass plant response rating [2, 18]: 0
- Blackgrass plant response rating [2, 23]: 0
- Ducksalad plant response rating [3]: 0
- Plant response rating (0 to 100 scale), Barnyardgrass [4, 20]: 0
- Barnyardgrass plant response rating [4, 18]: 0
- Barnyardgrass plant response rating [4, 23]: 0
- Plant response rating (0 to 100 scale), Pigweed ([5]; 125 g ai/ha): 0
- Pigweed plant response rating [5, 21]: 0
- Pigweed plant response rating ([5]; Postemergence, 500 g ai/ha): 0
- Oat, Wild plant response rating [6, 21]: 0
- Oat, Wild plant response rating ([6]; Postemergence, 500 g ai/ha): 0
- Plant response rating (0 to 100 scale), Velvetleaf ([7]; 125 g ai/ha): 0
- Velvetleaf plant response rating [7, 21]: 10
- Velvetleaf plant response rating ([7]; Postemergence, 500 g ai/ha): 50
- Plant response rating (0 to 100 scale), Foxtail, Giant [8, 20]: 0
- Foxtail, Giant plant response rating [8, 18]: 10
- Foxtail, Giant plant response rating [8, 23]: 40
- Barnyardgrass plant response rating [9]: 0
- Wheat plant response rating [10, 18]: 0
- Wheat plant response rating [10, 22]: 0
- Wheat plant response rating [10, 23]: 10
- Plant response rating (0 to 100 scale), Cocklebur [11, 20]: 0
- Cocklebur plant response rating [11, 18]: 0
- Cocklebur plant response rating [11, 23]: 0
- Plant response rating (0 to 100 scale), Surinam Grass ([12]; 125 g ai/ha): 0
- Surinam Grass plant response rating [12, 21]: 10
- Surinam Grass plant response rating ([12]; Postemergence, 500 g ai/ha): 10
- Plant response rating (0 to 100 scale), Morningglory ([13]; 125 g ai/ha): 0
- Morningglory plant response rating [13, 21]: 0
- Morningglory plant response rating ([13]; Postemergence, 500 g ai/ha): 10
- Sedge, Umbrella plant response rating [14]: 70
- Plant response rating (0 to 100 scale), Corn [15, 20]: 0
- Corn plant response rating [15, 18]: 0
- Corn plant response rating [15, 23]: 10
- Plant response rating (0 to 100 scale), Crabgrass, Large [16, 20]: 0
- Crabgrass, Large plant response rating [16, 18]: 0
- Crabgrass, Large plant response rating [16, 23]: 10
- Lambsquarters plant response rating [17, 21]: 0
- Lambsquarters plant response rating ([17]; Postemergence, 500 g ai/ha): 0
